Publication PMC5187951 (International Journal of Molecular Sciences, 2016)

Assays:
[1] = test system: carrageenan induced paw edema in mice; test: Carrageenan induced paw edema in mice; assay type: in vivo; conditions: 20 mg/kg p.o.; for Inflammation at 1 h (paw thickness), Mean ± SEM / Percent inhibition of paw edema at 1 h: 1 h after carrageenan; for Percent inhibition of paw edema at 1 h / Percent inhibition of paw edema at 2 h / Percent inhibition of paw edema at 3 h / Percent inhibition of paw edema at 4 h: vs control; for Inflammation at 2 h (paw thickness), Mean ± SEM / Percent inhibition of paw edema at 2 h: 2 h after carrageenan; for Inflammation at 3 h (paw thickness), Mean ± SEM / Percent inhibition of paw edema at 3 h: 3 h after carrageenan; for Inflammation at 4 h (paw thickness), Mean ± SEM / Percent inhibition of paw edema at 4 h: 4 h after carrageenan
Procedure: Anti-inflammatory activity of mutual prodrugs 5a–c was determined by following the already reported method by slight modification against carrageenan induced paw edema in mice. The animals were distributed into 5 groups each having five mice. The mice used for the experiment were kept on fasting for 24 h before the starting of experiment. […] The paw volume was measured at 0, 1, 2, 3 and 4 h after the administration of carrageenan by using vernier caliper. (1) Percent inhibition (%) = 100 (1−X/Y) where X = mean increase in paw thickness of treated mice; and Y = mean increase in paw thickness of control mice.

[2] = test system: egg albumin induced paw edema in mice; test: Egg albumin induced inflammation (paw edema) in mice; assay type: in vivo; conditions: 20 mg/kg p.o.
Procedure: Anti-inflammatory potential of synthesized prodrugs 5a–c against egg albumin induced inflammation was also determined for further verification by following the previously reported method. The animals were divided into five groups, each group having five animals. The animals were kept on fasting for 24 h before the beginning of the experiment.

[3] = test system: acetic acid induced writhing in mice; test: Acetic acid induced writhing in mice; assay type: in vivo; conditions: 20 mg/kg p.o.; for No. of Writhing, Mean ± SEM: 0.6% acetic acid, counted up to 15 min; for Percentage inhibition of writhing: vs control
Procedure: Koster et al., reported method was adopted for the determination of analgesic activity of the mutual prodrugs 5a–c. The mice were divided in to five groups each group consists of five animals. […] For induction of writhings, acetic acid solution (0.6% in normal saline) was given to every mouse post 30 min of treatment. After 5 min of injection of this solution, the number of writhings was counted up to 15 min.

[4] = test system: formalin induced licking in mice; test: Formalin induced licking in mice; assay type: in vivo; conditions: 20 mg/kg p.o.; for Lickings Time, Mean ± SEM: formalin 2.5%, observed 30 min; for Percentage inhibition of licking time: vs control
Source text: Formalin induced licking in mice was also used to determine analgesic activity of prodrugs 5a–c for further verification. The animals were distributed in to five groups having five mice in each group.

[5] = test system: yeast induced pyrexia in mice; test: Yeast induced pyrexia in mice; assay type: in vivo; conditions: for Temperature 1 h, Mean ± SEM / Temperature 2 h, Mean ± SEM / Temperature 3 h, Mean ± SEM: 20 mg/kg p.o.; for Temperature 1 h, Mean ± SEM: 1 h after drug administration; for Temperature 2 h, Mean ± SEM: 2 h after drug administration; for Temperature 3 h, Mean ± SEM: 3 h after drug administration; for Temperature After 24 h of Induction, Mean ± SEM: rectal temperature after yeast, before drug; for Temperature before Induction, Mean ± SEM: rectal temperature, baseline before yeast
Procedure: Antipyretic activity of prodrugs 5a–c was evaluated against yeast induced pyrexia in mice according to Sakande et al., reported method. Aqueous suspension of brewer′s yeast (20% in distilled water) […] was given subcutaneous to mice. […] Only, those animals were further used in which the pyrexia had been induced. The animals were divided in to five groups having five mice in each group. […] Then animals were treated as described earlier with control, standard and prodrugs 5a–c. Rectal temperature of animals was recorded at 1, 2, 3 and 4 h after drug administration.

[6] = test system: gastrointestinal mucosa (stomach); test: Ulcerogenic studies, fasted rat model; assay type: in vivo; conditions: 20 mg/kg p.o., 4 h after dose, UI = area of ulcer/area of stomach × 100
Procedure: The animals were categorized into 6 groups, each has 5 animals. Group 1 was control and given 0.5% carboxymethyl cellulose (CMC) suspension. […] The prodrugs 5a–c (20 mg/kg p.o.) were given to Groups III–V, respectively. Food and water was removed from animal cages 24 h before starting the experiments. After 4 h administration of dose, the animal′s stomach was removed by sacrificing the animal. Stomach was kept on saline soaked filter paper for inspection. The stomach was opened along larger curvature and cleaned with distilled water. The mucous was removed and the area of ulcers and stomachs were noted.
Following formula was used for calculation of Ulcer index (UI); (2) UI=Area of Ulcer/Area of Stomach×100

[7] = test system: platelet aggregation of rat platelet rich plasma induced by ADP or collagen; test: Ex vivo antiplatelet aggregation activity; assay type: in vivo, Sprague-Dawley (SD) rats; conditions: 100 mg/kg orally, blood 90 min after dosing, ADP 1.3 µmol/L or collagen 32.8 µg/mL; ASA 50 mg/kg positive control
Procedure: The antiplatelet activity of synthesized mutual prodrugs 5a–c was investigated by following the already reported method with some modifications. Male Sprague-Dawley (SD) rats weighing 320–350 g were used after overnight fasting. Rats were orally administered via gastric tube 100 mg/kg of prodrugs solution or 50 mg/kg of acetyl salicylic acid (ASA) suspended in 0.5% carboxymethyl cellulose (CMC) solution. Blood was collected 90 min after sample administration and platelet-rich plasma (PRP) was prepared by centrifugation of blood at 120× g for 15 min and further centrifuged at 850× g for 15 min to prepare platelet-poor plasma (PPP). Platelet aggregation was induced by 32.8 µg/mL of collagen or 1.3 µmol/L of adenosine diphosphate (ADP) in 300 µL of PRP. The PRP (300 µL) was incubated at 37 °C for 2 min in the aggregometer with stirring at 1000 rpm and then stimulated with ADP, collagen, epinephrine and A23187. The changes in light transmission were recorded for 5 min after stimulation. The synthesized mutual prodrugs 5a–c were added to the platelet suspension 3 min before the addition of the aggregating agents. The extent of inhibition of platelet aggregation is expressed as percent inhibition (X) using the following formula: (3) X=((A−B)/A)×100 where A = maximal aggregation of the control; and B = maximal aggregation of sample-treated PRP.

SMILES | Inflammation at 1 h (paw thickness), Mean ± SEM [1] | Percent inhibition of paw edema at 1 h [1] | Inflammation at 2 h (paw thickness), Mean ± SEM [1] | Percent inhibition of paw edema at 2 h [1] | Inflammation at 3 h (paw thickness), Mean ± SEM [1] | Percent inhibition of paw edema at 3 h [1] | Inflammation at 4 h (paw thickness), Mean ± SEM [1] | Percent inhibition of paw edema at 4 h [1] | No. of Writhing, Mean ± SEM [3] | Percentage inhibition of writhing [3] | Lickings Time, Mean ± SEM [4] | Percentage inhibition of licking time [4] | Temperature 1 h, Mean ± SEM [5] | Temperature 2 h, Mean ± SEM [5] | Temperature 3 h, Mean ± SEM [5] | Temperature After 24 h of Induction, Mean ± SEM [5] | Temperature before Induction, Mean ± SEM [5] | further results
CC(C)Cc1ccc([C@H](C)C(=O)OCC(=O)Oc2ccc3ccc(=O)oc3c2)cc1 [5c, (S)-((2-oxo-2H-chromen-7-yloxy)carbonyl) methyl 2-(4-isobutylphenyl) propanoate] | 4.22 ± 0.04 mm | 4.09% | 4.05 ± 0.02 mm | 12.14% | 3.80 ± 0.04 mm | 21.64% | 3.60 ± 0.04 mm | 28.99% | 18.25 ± 0.85 | 50.94% | 1.31 ± 0.07 | 53.71% | 98.35 ± 0.05 °F | 97.65 ± 0.15 °F | 97.25 ± 0.08 ^ns °F | 102.1 ± 0.96 °F | 98.95 ± 0.04 °F | Inflammation at 0 h (paw thickness), Mean ± SEM ([1]; 0 h after carrageenan): 4.32 ± 0.04 mm; Inflammation at 0 h (paw thickness), Mean ± SEM ([2]; 0 h after egg albumin): 4.60 ± 0.33 mm; Inflammation at 1 h (paw thickness), Mean ± SEM ([2]; 1 h after egg albumin): 3.12 ± 0.06 mm; Percent inhibition of paw edema at 1 h ([2]; 1 h after egg albumin, vs control): 29.09%; Inflammation at 2 h (paw thickness), Mean ± SEM ([2]; 2 h after egg albumin): 3.02 ± 0.06 mm; Percent inhibition of paw edema at 2 h ([2]; 2 h after egg albumin, vs control): 37.08%; Inflammation at 3 h (paw thickness), Mean ± SEM ([2]; 3 h after egg albumin): 2.92 ± 0.07 mm; Percent inhibition of paw edema at 3 h ([2]; 3 h after egg albumin, vs control): 44.06%; Ulcer Index (Mean±SEM) [6]: 1.61 ± 0.58; Inhibition of platelet aggregation [7]: most potent inhibitory effects
CC(C)Cc1ccc([C@H](C)C(=O)O)cc1 [Dexibuprofen, S-(+)-ibuprofen, reference compound] | 4.35 ± 0.06 mm | 1.1% | 4.07 ± 0.02 mm | 11.71% | 3.90 ± 0.04 mm | 19.58% | 3.75 ± 0.06 mm | 26.03% | 17.06 ± 1.08 | 54.12% | 1.60 ± 0.22 | 43.46% | 95.25 ± 0.37 ^ns °F | 95.02 ± 0.35 °F | 94.97 ± 0.31 °F | 95.77 ± 0.26 °F | 95.20 ± 0.21 °F | –
